Experimental data reported in patent US20160175249A1, “Liposomes Containing Oligopeptide Fragments of Myelin Basic Protein, a Pharmaceutical Composition and a Method for Treatment of Multiple Sclerosis” (LIPOXEN TECHNOLOGIES LIMITED, priority 2009, published 2016).

Experiments:
[1] = tested on: experimental allergic encephalomyelitis (EAE) in DA rats; assay: Treatment of EAE in DA rats with liposomally encapsulated MBP peptides (Example 5); assay type: in vivo; details: 150 μg per animal daily subdermally days 6-11, score 0-5
Experimental: To induce experimental allergic encephalomyelitis (EAE) in DA rats having a mass of 220-250 g ([…]), 10 μg of myelin basic protein encephalogenic peptide fragment ARTTHYGSLPQKSQRSQ (SEQ ID NO:4; Anaspec, US) emulsified in Freund's complete adjuvant (Difco, US) at a concentration of 10% (m/v) was subdermally injected into the forepaw. The rats were weighted and monitored for EAE neurological symptoms daily. The EAE symptom profile of each rate was scored according to the following scale: (0)—absence of EAE symptoms; (1)—decrease in tail tonicity; (2)—decrease in righting reflex; (3)—paresis; (4)—full paralysis; and (5)—agony or death. Intermediary symptoms were scored by increasing or decreasing the value by 0.5 units. Six days after EAE induction, animals were randomly distributed into several groups (12 animals each).
Between days six and eleven after induction, rats in each respective group were subdermally injected with the liposomal preparation described in Example 2 (emulsified in phosphate saline solution, pH 7.4), a positive control preparation of glatiramer acetate (GA; copaxone, Teva Pharmaceutical Industries Ltd, Israel), a prototype peptide: DENPVVIIFFKNIVTPRT (SEQ ID NO:5), or a buffered phosphate saline solution (pH 7.4) placebo. The peptide, Glatiramer acetate, and liposomal preparations were formulated immediately prior to administration using buffered phosphate saline solution (pH 7.4). 0.1 mL of each composition was administered daily at a concentration of 150 μg per animal.

EAE-induced DA rats = assay: EAE-induced DA rat model, paralysis score and mortality (DA-EAE-28-05, Example 14); assay type: in vivo; details: versus water control (Group 1); days 1-4 post-treatment; daily s.c., 6 total; n=6
Experimental: Each of the four MBP peptide formulations being evaluated were provided as lyophilized powders and stored at 4° C. Each formulation was rehydrated in water for injection according to Table 13. Copaxone (Teva LTD) was diluted with Saline to a final concentration of 720 μg/mL. Each subject animal was administered the test formulation for 6 consecutive days by subcutaneous injection.
8-9 week old Dark Agouti (DA) female rats (Harlan Laboratories, Inc.), weighing between 110 and 145 grams were used as the test subjects. The health status of the animals used in this study was examined on arrival. Only animals in good health were acclimatized to laboratory conditions and were used in the study. Animals were provided food ad libitum and free access to drinking water. Animals were housed in a controlled environment at between 20° C. and 24° C. with a relative humidity of 30-70% and a 12 hr light/12 hr dark cycle. Animals were randomly assigned to their respective test group. […]
The rats were evaluated up daily starting 24 hours after immunization. […] The animals were maintained and evaluated until day 28th post EAE-induction. […]
Animals were observed individually and clinical signs were recorded once daily during all study periods. […] The body weight of each animals was determined daily during all study periods.

For glatiramer acetate [copaxone], the “Evaluation of EAE symptom intensity, average” value (“Evaluation” for short) ([1]; day 0 after EAE induction) was 0.00, the “Evaluation” value ([1]; day 1 after EAE induction) was 0.00 and the “Evaluation” value ([1]; day 2 after EAE induction) was 0.00. For the same substance, the “Evaluation” value ([1]; day 3 after EAE induction) was 0.00, the “Evaluation” value ([1]; day 4 after EAE induction) was 0.00 and the “Evaluation” value ([1]; day 5 after EAE induction) was 0.00. For the same substance, the “Evaluation” value ([1]; day 6 after EAE induction) was 0.00, the “Evaluation” value ([1]; day 7 after EAE induction) was 0.00 and the “Evaluation” value ([1]; day 8 after EAE induction) was 0.50. The “Evaluation” value ([1]; day 9 after EAE induction) was 1.67, the “Evaluation” value ([1]; day 10 after EAE induction) was 2.17 and the “Evaluation” value ([1]; day 11 after EAE induction) was 2.25. The “Evaluation” value ([1]; day 12 after EAE induction) was 2.25, the “Evaluation” value ([1]; day 13 after EAE induction) was 2.83 and the “Evaluation” value ([1]; day 14 after EAE induction) was 2.75. For the same substance, the “Evaluation” value ([1]; day 15 after EAE induction) was 2.33, the “Evaluation” value ([1]; day 16 after EAE induction) was 2.08 and the “Evaluation” value ([1]; day 17 after EAE induction) was 2.17. The “Evaluation” value ([1]; day 18 after EAE induction) was 2.17, the “Evaluation” value ([1]; day 19 after EAE induction) was 1.75 and the “Evaluation” value ([1]; day 20 after EAE induction) was 1.67. The “Evaluation” value ([1]; day −1 after EAE induction) was 0.00 and the paralysis score (EAE-induced DA rats) was “non-statistically significant difference (tendency)”.
